From US11833131B2, “Compositions and methods for treating inflammatory diseases” (priority 2017, dated 2023)

What was measured:
Assay type in all cases: cell-based, human
[1] = system: GPR55 gene expression in HCT-116 cells; test: GPR55 gene expression (qPCR) in HCT-116 cells after TNF-α; conditions: HCT-116, overnight treatment with TNF-α vs non-treated; ratio to GAPDH, 2-ΔΔCT
Experimental: (§1) Cells were seeded into a 6-well plate at a concentration of 1,500,000 cell/mL per well. After 24 hours incubation at 37° C. in a humidified 5% CO2-95% air atmosphere, cells were treated with TNF-α (final concentration of 1 ng/mL) and incubated overnight under the same conditions. Non-treated cells or cells treated only with TNF-α served as negative and positive controls, respectively. […] The next day, cells were harvested and total RNA was extracted using TRI reagent (Sigma-Aldrich) according to the manufacturer's protocol. For biopsies, all treatments were added overnight, after which the biopsies were stored at −20° C. in RNA Save solution (Biological Industries, Beit Haemek, Israel). RNA was extracted from frozen biopsies. Tissue samples were homogenized with an appropriate homogenizer in TRI reagent, as done for the cells. RNA (50 ng for biopsies: four UC patients and one CD patient) or 2.5 μg (for cells) was reverse-transcribed in a total volume of 20 μL using Maxima reverse transcriptase (Thermo Scientific, Boston, Mass., USA) according to the manufacturer's protocol. […] The expression of each target gene was normalized to the expression of GAPDH mRNA in the 2-ΔΔCt and is presented as the ratio of the target gene to GAPDH mRNA, expressed as 2-ΔCt, where Ct is the threshold cycle and ΔCt=Ct Target−Ct GAPDH. […]
(§2) Transcripts for CB1, CB2 and GPR55 were detected by qPCR in HCT116 cells.

[2] = system: CB1 gene expression in HCT-116 cells; test: CB1 gene expression (qPCR) in HCT-116 cells after TNF-α; conditions: HCT-116, overnight treatment with TNF-α vs non-treated; ratio to GAPDH, 2-ΔΔCT
Experimental: as §1, §2

[3] = system: CB2 gene expression in HCT-116 cells; test: CB2 gene expression (qPCR) in HCT-116 cells after TNF-α; conditions: HCT-116, overnight treatment with TNF-α vs non-treated; ratio to GAPDH, 2-ΔΔCT
Experimental: as §1, §2

[4] = system: IL-8 levels in HCT116 cells; test: IL-8 ELISA in TNF-α-treated HCT116 cells; conditions: for EC50: Homo sapiens, HCT-116, 16 h, read-out: EC50 (anti-inflammatory assay, 50% of activity)
Experimental: FIGS. 13A-C depict EC50 dose of fractions on HCT116 cells. (FIG. 13A) Fraction 7 (F7), (FIG. 13B) CBD and (FIG. 13C) THC. Dose-effect curves of F7, CBD or THC on IL-8 levels of HCT116 colon cancer cells. HCT116 cells were seeded (50,000 per well) in triplicate in 500 μL, growing media and incubated for 24 hours at 37° C. in a humidified 5% CO2-95% air atmosphere. Cells were treated with 50 ng/mL TNF-α and F7, CBD or THC for 16 hours. Levels of IL-8 were measured from the supernatant using a commercial kit. Values (ng/mL) were calculated relative to a TNF-α treated control. Non-treated are the cells without TNF-α and treatments. For dose response assays, data points were connected by non-linear regression lines of the sigmoidal dose-response relation. GraphPad Prism was employed to produce dose-response curve and EC50 doses.
(§3) HCT116 (ATCC CCL-247), HT29 (ATCC HTB-38) and CaCO2 (ATCC HTB-37) colon cells were grown at 37° C. in a humidified 5% CO2-95% air atmosphere. Cells were maintained in McCoy's 5a Modified Medium (HCT116 and HT29) and Dulbecco's modified Eagle's medium (DMEM) supplemented with 10% fetal bovine serum (CaCO2).
(§4) Cells were seeded, in triplicate, into a 24-well plate at a concentration of 50,000 cells per well in 500 μL, of growing media, and then incubated for 24 hours at 37° C. in a humidified 5% CO2-95% air atmosphere. When cell excitation was performed with TNF-α, cultures in each well were treated with 50-300 ng/mL recombinant human TNF-α (PeproTech, Rocky Hill, N.J., USA) and 50 μL plant extract, as described above (dilution index 57 or 280). The supernatant was taken and the level of IL-8 [12] was measured 4-16 hours post-treatment using the commercial Human CXCL8/IL-8 DuoSet ELISA kit (R&D Systems, Minneapolis, Minn., USA). As a positive control dexamethasone (Sigma-Aldrich, St. Louis, Mo., USA) at 20, 200 and 400 μM final concentration was used.
The involvement of the receptors (CB1, CB2 and GPR55) was examined by treating the cells with 20 μM of the CB1 receptor antagonist/inverse agonist Rimonabant (Abcam, Cambridge, Mass., USA), CB2 receptor antagonist/inverse agonist SR144528 (Abcam) and GPR55 antagonist/inverse agonist CID16020046 (Sigma-Aldrich, Buchs, Switzerland). […] Cell treatment with purified compounds was performed with CBD (Restek, Pa., USA) at different concentrations (as indicated in each experiment), THCA (THCA-A; Restek) at a final concentration of 0.2 mM and THC (Restek) at a final concentration of as indicated in each experiment mM to confirm the activity of each cannabinoid.
For dose response assays, data points were connected by non-linear regression lines of the sigmoidal dose-response relation. GraphPad Prism (version 6 for windows, GraphPad software Inc. San Diego, USA) was employed to produce dose-response curves and IC50 doses were calculated using nonlinear regression analysis.

[5] = system: IL-8 levels in HT29 cells; test: IL-8 ELISA in TNF-α-treated HT29 cells, incl. F7/THCA + CBD combinations (Bliss model); conditions: for dose response of IL-8 levels: HT29, after 4 hours of treatment, F7 5-80 μg/ml, CBD 5-80 μM, THC 12.5-75 μM
Experimental: as §3, §4
In order to examine if there is a synergy between CBD and F7, ELISA assay was used to measure the anti-inflammatory activity of the fractions on HCT116 cells. Cells were seeded into a 24-well plates at 50,000 cells per well in triplicate in normal growing media. After 24 hours of incubation at 37° C. in a humidified 5% CO2-95% air atmosphere, cells were treated with different concentration of F7 (5 μg/mL to 80 μg/mL) with and without CBD (30 μM) along with 300 ng/mL of TNF-α or with different concentration of CBD (5 μM to 120 μM) with and without F7 (30 μg/mL) along with 300 ng/mL of TNF-α for 4 hours. Following, the supernatant was taken and the levels of IL-8 were measured using the commercial Human CXCL8/IL-8 DuoSet ELISA kit (R&D Systems, Minneapolis, Minn., USA). Resazurin (R&D Systems) was used to check the cytotoxic effect of extracts.
Drug synergy was determined by Bliss independence drug interaction model which is defined by the following equation: Exy=Ex+Ey−(ExEy)
Where (Exy) is the additive effect of the drug x and y as predicted by their individual effects (Ex and Ey). For calculation purpose, in this paper, the drug's anti-cancer effect was defined as complementary to the obtained results (1−Exy). The observed combined percentage viability is then compared to the calculated value. If the observed value of Exy is greater than the calculated Exy value, the combination treatment is considered as worse than expected, which means antagonism effect. If the observed value is less than the calculated one, then the combination treatment is considered as better than expected, thus showing synergism effect. […]

CaCO2 cells = test: Cell viability, Alamar Blue (Resazurin assay), CaCO2; conditions: CBD 16-252 μg/mL
Experimental: (§5) Resazurin (R&D Systems) was used to check the cytotoxic effect of extracts. For this, 10% Resazurin was added to each well of the treatments with different dilution. Then the plate was incubated for 2-4 hours at 37° C. in a humidified 5% CO2-95% air atmosphere. Supernatant (100 μL from each well) was transferred to a 96-well plate and the relative fluorescence at the excitation/emission of 544/590 nm was measured. The number of live cells was calculated with a linear standard concentrate curve built by seeding different concentrations of cells in 24-well plates treated with Resazurin. Values were calculated as percentage of live cells relative to the non-treated (cells without TNF-α and treatments) control after reducing auto-fluorescence of Alamar Blue without cells.

HCT116 cells = test: Cell viability, Alamar Blue (Resazurin assay), HCT116
Experimental: HCT116 cells were seeded (50,000 per well) in triplicate in 500 μL growing media and incubated for 24 hours at 37° C. in a humidified 5% CO2-95% air atmosphere. […] Following, the cells were incubated with Alamar Blue for 4 hours. Relative fluorescence at the excitation/emission of 544/590 nm was measured. Values were calculated as percentage of live cells relative to the non-treated (cells without TNF-α and treatments) control after reducing the auto fluorescence of Alamar Blue without cells (n=3). […] HCT116 cells were seeded (50,000 per well) in triplicate in 500 μL, growing media and incubated for 24 hours at 37° C. in a humidified 5% CO2-95% air atmosphere. […] Relative fluorescence at the excitation/emission of 544/590 nm was measured. Values were calculated as percentage of live cells relative to the non-treated (cells without TNF-α and treatments) control after reducing the auto fluorescence of Alamar Blue without cells (n=3). […]
Resazurin (R&D Systems) was used to check the cytotoxic effect of extracts. […] Supernatant (100 μL from each well) was transferred to a 96-well plate and the relative fluorescence at the excitation/emission of 544/590 nm was measured. The number of live cells was calculated with a linear standard concentrate curve built by seeding different concentrations of cells in 24-well plates treated with Resazurin. […]

[6] = system: IL-8 levels in CaCO2 cells; test: IL-8 ELISA in TNF-α-treated CaCO2 cells; conditions: CaCO2, 300 ng/mL TNF-α, 4 hours
Experimental: as §3, §4

HT29 cells = test: Cell viability, Alamar Blue (Resazurin assay), HT29; conditions: CBD 16-252 μg/mL, relative to HCT116 and CaCO2
Experimental: as §5

For TNF-α, the “Mean relative expression, GPR55” value [1] was 5.26, the “Mean relative expression, CB1” value [2] was 1.31 and the “Mean relative expression, CB2” value [3] was 5.84.
With `Cc1ccc(-c2n[nH]c3c2C(c2cccc(O)c2)N(c2ccc(C(=O)O)cc2)C3=O)cc1` (stereo not drawn) [CID16020046] the “IL-8 level in control” value ([4]; HCT116, antagonist 20 μM alone, without fractions) was “did not change IL-8 level”.
For `C=C(C)[C@@H]1CCC(C)=C[C@H]1c1c(O)cc(CCCCC)cc1O` [CBD, cannabidiol], the “anti-inflammatory activity (IL-8 level)” value ([5]; HT29, 300 ng/mL TNF-α, 4 hours) was “active in reduction of IL-8 levels”, the “dose response of IL-8 levels” value [5] was “dose dependent reduction of IL-8 levels” and the “IL-8 level at low concentrations” value ([5]; HT29, CBD below 20 μM) was “significant decrease in the IL-8 level”. For the same molecule, the cell death (CaCO2 cells) was “dose-dependent cell death”, the cell death (HCT116 cells; CBD 16-252 μg/mL) was “dose-dependent cell death” and the “anti-inflammatory activity (IL-8 level)” value [6] was “active in reduction of IL-8 levels”. The cell death (HT29 cells) was “to a lesser extent”, the “anti-inflammatory activity (IL-8)” value ([4]; HCT116, higher CBD concentrations) was “no anti-inflammatory activity” and the EC50 [4] was 30.4 µM. For the same molecule, the “reduction in IL-8 levels” value ([4]; purified CBD 16-252 μg/mL, lower concentrations of CBD) was “reduction in IL-8 levels”.
For SR144528, the HCT116 cell proliferation (HCT116 cells; antagonist 20 μM) was “Significantly Increases HCT116 Cell Proliferation”.
`CCCCCc1cc(O)c2c(c1)OC(C)(C)[C@@H]1CCC(C)=C[C@@H]21` [THC, Δ9-tetrahydrocannabinol] was tested, and the “dose response of IL-8 levels” value [5] was “dose dependent reduction of IL-8 levels” and the EC50 [4] was 102 µM.
In the case of `CCCCCc1cc2c(c(O)c1C(=O)O)C1C=C(C)CCC1C(C)(C)O2` (stereo not drawn) [THCA, Δ9-tetrahydrocannabinolic acid], the “reduction of IL-8 levels” value ([4]; HCT116, 50 ng/mL TNF-α, 16 hours, 0.2 mM THCA, F7 diluted 280-fold to correspond to 0.2 mM THCA) is reported as “significantly reduced IL-8 levels”.
